According to patent US5554631A, “5-pyrrolyl-6-halogeno-2-pyridylmethylsulfinyl benzimidazole derivatives” (Il-Yang Pharm. Co., Ltd., priority 1994, dated 1996):

How the values were obtained:
H^+ /K^+ -ATPase = biological target: T1, H^+ /K^+ -ATPase (Oryctolagus cuniculus, UniProt P27112); test: Inhibition of H+/K+-ATPase enzyme activity in vitro; assay type: biochemical, rabbit; settings: rabbit gastric microsomal H+/K+-ATPase, 5 min pre-incubation at 37° C., 4 mM ATP; read-out: IC50
T1 construct: The gastric mucous membrane was removed from rabbit; from tissue; host or cells: rabbit gastric mucosa, microsomal fraction (77,000 xg)
Method: The gastric mucous membrane was removed from rabbit and then centrifuged with 77,000 xg using a ultracentrifuge to separate the microsomal fraction which was used as the source of H^+ /K^+ -ATPase enzyme for this test. 60 μg of H^+ /K^+ -ATPase was pre-incubated with the sample (the compound according to the present invention) for 5 minutes at 37° C. and then 4 mM ATP as the substrate and 4 mM Mg^++, 20 mM K^+ as the cofactor were added thereto. Then, the amount of inorganic phosphorus thus produced was determined using a spectrophotometer at 660 nm and converted into the amount of protein according to Lowry method. […]

[1] = system: gastric and duodenal ulcers; test: Anti-ulcer effect / pharmacological efficacy (general statements); settings: in words
acidity = test: Inhibition of acidity (total acid output), Shay method; assay type: in vivo, SD male rats; settings: 5 h; for Volume (inhibition of acidity) / Inhibition rate, acidity: intraduodenal, rat; for Inhibition rate, acidity: vs normal group
Method: (§1) The specific test methods are as follows.
(§2) SD male rats (200±20 g) were fasted for 24 hours, except for water, and then anesthesized with ether. The abdomen of rats was incised and then the pylorus was ligated. The test compounds were suspended or dissolved in […] (carboxymethylcellulose) and injected into duodenum. After the abdomen was suctured, the rats were allowed to stand for 5 hours and then sacrificed with ether. The stomach was removed from rats and the gastric juices were collected. The gastric juice was centrifuged with 10,000×g for 10 minutes at 4° C. to remove the precipitate. The amount of gastric juice and acidity were determined using pH 7.0 end point assay with 0.02N NaOH and then the total acid output was calculated.

gastric juice secretion = test: Inhibition of gastric juice secretion, Shay method; assay type: in vivo, SD male rats; settings: 5 h; for Gastric juice volume / Inhibition rate, gastric juice secretion: intraduodenal, rat; for Inhibition rate, gastric juice secretion: vs normal group
Method: as §1, §2

in vivo = settings: mouse, in vivo, po
Method: (§3) Five weeks aged ICR (male, female) mouse were pre-bred in the breeding cage for one week and then the animals showing a smooth gain in body weight were randomly selected and used in this test. The amount to be administered to the test animals was established on the basis of the maximum dose of 5,000 mg/kg with the common ratio of 1.5.
(§4) The test compounds in a powder were suspended in 0.5% methylcellulose and administered per oral using a lml syringe. The other specific conditions for administration are described in the following.
(§5) In the above test, the control group received only 0.5% methylcellulose.
(§6) (1) Clinical symptoms and death of test animals
(§7) The clinical symptoms and death of test animals caused by the test compounds were recorded immediately after administration of the test compounds and during the overall test period.

ICR (male, female) mouse = test: in vivo; settings: mouse
Method: as §3, §4, §5, §6, §7

T1 sequence (P27112 2-1035 limits assumed): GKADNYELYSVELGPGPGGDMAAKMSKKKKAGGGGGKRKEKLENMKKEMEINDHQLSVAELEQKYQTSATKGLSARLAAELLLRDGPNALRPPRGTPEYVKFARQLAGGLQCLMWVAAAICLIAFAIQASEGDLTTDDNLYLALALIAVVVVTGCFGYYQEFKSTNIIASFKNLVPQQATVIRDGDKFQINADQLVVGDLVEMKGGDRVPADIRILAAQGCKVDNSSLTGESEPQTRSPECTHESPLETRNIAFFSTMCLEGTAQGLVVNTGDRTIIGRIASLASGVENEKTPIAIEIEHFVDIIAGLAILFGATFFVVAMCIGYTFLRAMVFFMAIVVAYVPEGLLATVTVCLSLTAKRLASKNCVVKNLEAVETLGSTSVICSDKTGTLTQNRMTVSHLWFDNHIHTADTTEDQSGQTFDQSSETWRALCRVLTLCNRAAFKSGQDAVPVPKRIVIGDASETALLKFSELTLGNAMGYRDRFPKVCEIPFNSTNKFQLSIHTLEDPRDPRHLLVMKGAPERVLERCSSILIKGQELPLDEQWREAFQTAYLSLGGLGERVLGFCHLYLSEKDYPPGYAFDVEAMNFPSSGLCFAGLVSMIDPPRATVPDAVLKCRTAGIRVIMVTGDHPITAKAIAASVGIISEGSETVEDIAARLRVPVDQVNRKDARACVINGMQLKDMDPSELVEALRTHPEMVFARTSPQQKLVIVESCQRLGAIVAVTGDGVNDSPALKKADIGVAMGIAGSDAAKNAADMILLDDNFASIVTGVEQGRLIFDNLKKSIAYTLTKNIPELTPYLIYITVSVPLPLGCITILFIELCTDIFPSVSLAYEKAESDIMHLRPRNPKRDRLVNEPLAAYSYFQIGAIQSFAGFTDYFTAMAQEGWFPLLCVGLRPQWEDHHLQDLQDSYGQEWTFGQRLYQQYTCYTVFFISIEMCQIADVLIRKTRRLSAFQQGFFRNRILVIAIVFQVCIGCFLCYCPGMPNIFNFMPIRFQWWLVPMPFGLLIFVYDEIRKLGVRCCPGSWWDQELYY
T1 sequence (P18597 whole entry partner): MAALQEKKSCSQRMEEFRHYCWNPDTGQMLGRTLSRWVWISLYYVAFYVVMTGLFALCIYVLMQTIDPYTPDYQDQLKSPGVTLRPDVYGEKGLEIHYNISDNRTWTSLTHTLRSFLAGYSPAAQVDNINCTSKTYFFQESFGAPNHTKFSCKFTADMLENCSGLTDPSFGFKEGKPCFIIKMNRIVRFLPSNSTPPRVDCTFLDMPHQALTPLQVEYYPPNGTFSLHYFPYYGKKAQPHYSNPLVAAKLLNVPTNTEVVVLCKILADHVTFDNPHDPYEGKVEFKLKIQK

For COc1ccnc(C[S+]([O-])c2nc3cc(-n4cccc4)c(F)cc3[nH]2)c1C (stereo not drawn) [Compound 2, 2-[[(4-methoxy-3-methyl)-2-pyridinyl]methylsulfinyl]-5-(1H-pyrrol-1-yl)-6-fluoro-1H-benzimidazole], the IC50 (H^+ /K^+ -ATPase) was 4.1 µM, the “Anti-ulcer effect compared with Omeprazole” value [1] was “anti-ulcer effect is similar to that of Omeprazole” and the “Volume (inhibition of acidity)” value (acidity; 3 mg/kg) was 34.60 ± 8.12 μEq/hr. For the same compound, the “Inhibition rate, acidity” value (acidity; 3 mg/kg) was 40.62%, the “Volume (inhibition of acidity)” value (acidity; 10 mg/kg) was 14.28 ± 4.28 μEq/hr and the “Inhibition rate, acidity” value (acidity; 10 mg/kg) was 75.35%. For the same compound, the “Volume (inhibition of acidity)” value (acidity; 30 mg/kg) was 5.72 ± 0.59 μEq/hr, the “Inhibition rate, acidity” value (acidity; 30 mg/kg) was 90.13% and the ED50 (acidity; Rattus norvegicus) was 4.04 mg/kg. For the same compound, the Gastric juice volume (gastric juice secretion; 3 mg/kg) was 2.11 ± 0.36 ml/100 g BW, the “Inhibition rate, gastric juice secretion” value (gastric juice secretion; 3 mg/kg) was 35.28% and the Gastric juice volume (gastric juice secretion; 10 mg/kg) was 1.52 ± 0.19 ml/100 g BW. For the same compound, the “Inhibition rate, gastric juice secretion” value (gastric juice secretion; 10 mg/kg) was 53.37%, the Gastric juice volume (gastric juice secretion; 30 mg/kg) was 1.03 ± 0.10 ml/100 g BW and the “Inhibition rate, gastric juice secretion” value (gastric juice secretion; 30 mg/kg) was 68.40%. The ED50 (gastric juice secretion; Rattus norvegicus) was 8.18 mg/kg, the LD50 (in vivo) was over 5000 mg/kg and the “Acute toxicity (in words)” value (ICR (male, female) mouse; clinical symptoms, death and autopsy results, oral) was “very low as in Omeprazole”. The “Safety (conclusion)” value (ICR (male, female) mouse; in vivo) was “very safe compound”, the LD50 (ICR (male, female) mouse; in vivo, po) was > 5,000.0 mg/kg BW and the Visual autopsy view (ICR (male, female) mouse; in vivo, po) was “No specific abnormal autopsy view was observed”.
